Laboratory results taken from PubChem BioAssay (NCI).
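Cultured in 96-well plates, cells were exposed to test compound for 48 hours across five concentrations. At the TGI there is no net growth.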

What was measured:
Experiment in all cases: NCI-60 cell line screen, 48 h
[1] = tested on: RPMI-8226 leukemia
[2] = tested on: EKVX NSCLC
[3] = tested on: MDA-MB-231 breast
[4] = tested on: UACC-62 melanoma
[5] = tested on: HCT-15 colon
[6] = tested on: MDA-MB-435
[7] = tested on: UO-31 renal
[8] = tested on: NCI/ADR-RES ovarian
[9] = tested on: M14 melanoma
[10] = tested on: HT29 colon
[11] = tested on: COLO 205 colon
[12] = tested on: NCI-H460 lung
[13] = tested on: UACC-257 melanoma
[14] = tested on: LOX IMVI melanoma
[15] = tested on: SK-OV-3 ovarian
[16] = tested on: SNB-19 CNS
[17] = tested on: SF-295 CNS
[18] = tested on: SNB-75 CNS
[19] = tested on: K-562 leukemia
[20] = tested on: RXF 393 renal
[21] = tested on: SK-MEL-2 melanoma
[22] = tested on: OVCAR-8 ovarian
[23] = tested on: HCC-2998 colon
[24] = tested on: IGROV1 ovarian
[25] = tested on: ACHN renal
[26] = tested on: OVCAR-3 ovarian
[27] = tested on: T-47D breast
[28] = tested on: MCF7 breast
[29] = tested on: NCI-H226 lung
[30] = tested on: OVCAR-5 ovarian
[31] = tested on: NCI-H522 lung
[32] = tested on: OVCAR-4 ovarian
[33] = tested on: KM12 colon
[34] = tested on: A549 NSCLC
[35] = tested on: CCRF-CEM leukemia
[36] = tested on: MDA-N
[37] = tested on: SR leukemia
[38] = tested on: SF-268 CNS
[39] = tested on: SF-539 CNS
[40] = tested on: A498 renal
[41] = tested on: SW-620 colon
[42] = tested on: MALME-3M melanoma
[43] = tested on: PC-3 prostate
[44] = tested on: U251 CNS
[45] = tested on: HOP-92 NSCLC
[46] = tested on: CAKI-1 renal
[47] = tested on: 786-0 renal
[48] = tested on: SK-MEL-28 melanoma
[49] = tested on: DU-145 prostate
[50] = tested on: NCI-H23 lung
[51] = tested on: TK-10 renal
[52] = tested on: HS 578T breast
[53] = tested on: HL-60(TB) leukemia
[54] = tested on: MOLT-4 leukemia
[55] = tested on: SK-MEL-5 melanoma
[56] = tested on: HOP-62 NSCLC

What does the source list for `CCCC[C@@H](C)/C=C1\CN2CCC[C@H]2[C@@](C)(O)[C@@H]1O`?
TGI [1]: > 100 µM; TGI [2]: > 100 µM; TGI [3]: > 100 µM; TGI [4]: > 100 µM; TGI [5]: > 100 µM; TGI [6]: > 100 µM; TGI [7]: > 100 µM; TGI [8]: > 100 µM; TGI [9]: > 100 µM; TGI [10]: > 100 µM; TGI [11]: > 100 µM; TGI [12]: > 100 µM; TGI [13]: > 100 µM; TGI [14]: > 100 µM; TGI [15]: > 100 µM; TGI [16]: > 100 µM; TGI [17]: > 100 µM; TGI [18]: 85.1 µM; TGI [19]: > 100 µM; TGI [20]: 38.1 µM; TGI [21]: > 100 µM; TGI [22]: > 100 µM; TGI [23]: > 100 µM; TGI [24]: > 100 µM; TGI [25]: > 100 µM; TGI [26]: > 100 µM; TGI [27]: > 100 µM; TGI [28]: > 100 µM; TGI [29]: > 100 µM; TGI [30]: > 100 µM; TGI [31]: > 100 µM; TGI [32]: > 100 µM; TGI [33]: > 100 µM; TGI [34]: > 100 µM; TGI [35]: > 100 µM; TGI [36]: > 100 µM; TGI [37]: > 100 µM; TGI [38]: > 100 µM; TGI [39]: > 100 µM; TGI [40]: > 100 µM; TGI [41]: > 100 µM; TGI [42]: > 100 µM; TGI [43]: > 100 µM; TGI [44]: > 100 µM; TGI [45]: 73.6 µM; TGI [46]: 71.2 µM; TGI [47]: > 100 µM; TGI [48]: > 100 µM; TGI [49]: 60.4 µM; TGI [50]: > 100 µM; TGI [51]: > 100 µM; TGI [52]: > 100 µM; TGI [53]: 11 µM; TGI [54]: > 100 µM; TGI [55]: > 100 µM; TGI [56]: > 100 µM
